Test results: patent publication US20170138931A9, “METHOD FOR DIAGNOSIS OF INFLAMMATORY DISEASES USING CALGRANULIN C” (WESTFAELISCHE WILHELMS-UNIVERSITAET MUENSTER, priority 2002, published 2017)
Marks after values point to notes of the source that are not given here.

Columns and labels:
[1] = test system: CALGRANULIN C expressed in synovial tissue; experiment: Immunohistochemical analysis of CALGRANULIN C in synovial tissue of psoriatic arthritis patients before and after MTX treatment; type: in vivo, human; conditions: for number of CALGRANULIN C-positive cells per field in synovial membrane, mean score of 10 fields: after MTX treatment, 400-fold magnification
Procedure: To confirm local expression of CALGRANULIN C at sites of inflammation we performed immunohistochemical studies. Synovial biopsies were performed in 4 patients with psoriatic arthritis before and after MTX-therapy. In addition, biopsies were obtained from 5 patients with psoriatic arthritis not receiving MTX, 2 patients with rheumatoid arthritis, and 2 patients with seronegative arthritis. Two biopsies of patients without synovial inflammation served as negative controls. Cryo-fixed and paraffin-embedded sections were prepared as commonly known in the art. Rabbit anti-human CALGRANULIN C antibody was used to detect CALGRANULIN C expression. Mouse-anti-human CD15, a granulocyte-associated antigen, was used to detect granulocytes in infiltrates. Mouse-anti human CD163 antibody (clone RM3/1, detecting a macrophage-specific scavenger receptor) was employed to characterize macrophages in infiltrates. Species matching control antibodies of irrelevant specificity were used as negative controls. Finally the sections were counterstained with Mayer's haematoxylin. Secondary antibodies and substrates for colour reactions were used as described before. For double-labelling experiments, anti-CALGRANULIN C antibody was followed by anti-CD15 antibody. We used affinity-purified goat-anti-mouse or goat-anti-rabbit secondary antibodies conjugated with either Texas Red or FITC (Dianova, Hamburg, Germany). Fluorescence was analysed using a Zeiss Axioskop connected to an Axiocam camera supply with Axiovision 3.0 for windows (Zeiss, Göttingen, Germany). No cross-reactivity or spillover was detected in control experiments after omitting specific antibodies or replacing them by isotype-matched control antibodies of irrelevant specificity.
We analysed the effects of MTX treatment on CALGRANULIN C expression in serum of 14 patients with psoriatic arthritis and in synovial membranes of 4 patients. Before treatment, extensive expression of CALGRANULIN C was found in synovial tissue of psoriatic arthritis patients before MTX treatment (cf. FIG. 7G), as described above predominantly in the sub-lining layer and perivascular.

[2] = test system: patients with psoriatic arthritis; experiment: Disease activity in patients with psoriatic arthritis after initiation of MTX treatment; type: in vivo, human
Procedure: We investigated 42 patients with chronic inflammatory arthritis. CALGRANULIN C concentrations were analysed in serum and synovial fluid using a sandwich-ELISA as described above. Serum levels were determined from 14 patients (9 male, 5 female; mean age 40 years; range 21-64) suffering from psoriasis arthritis (mean disease duration 14.6±8.6 months), who where treated with the anti-inflammatory drug MTX (mean dose 12.9±4.8 mg). No other medication apart from non-steroidal anti-inflammatory drugs (NSAIDs) were taken. Serum was obtained before and after treatment (mean follow up interval 6.4±1.3 months). In addition, paired serum and synovial fluid samples were available from 28 patients who underwent arthroscopy (8 patients with psoriatic arthritis, 9 patients with rheumatoid arthritis, 11 patients with seronegative arthritis). All patients were examined by the same physician. Clinical status of patients was documented by recording early morning stiffness, pain score, Ritchie articular index (RI) (Ritchie et al., 1968, QJ Med 37: 393-406) and number of swollen joint count (SJC). […] Patients with seronegative arthritis were in between these groups. In addition to the clinical status, CRP, ESR, anti nuclear antibodies (ANA), and rheumatoid factor (RF) were documented.
Response to therapy was paralleled by a marked decrease of CALGRANULIN C serum levels after MTX treatment (mean 240 ng/ml prior versus 100 ng/ml after MTX; cf. FIG. 8). CALGRANULIN C levels correlated well with improving EMS, pain score, RI and SJC.

[3] = test system: CALGRANULIN C serum levels; experiment: Serum CALGRANULIN C by sandwich ELISA in psoriatic arthritis patients treated with MTX; type: in vivo, human; conditions: 14 psoriatic arthritis patients, after MTX; 240 ng/ml prior
Procedure: (§1) Concentrations of CALGRANULIN C in the serum of patients were determined by a double sandwich enzyme linked immunosorbent assay (ELISA) system. Flat-bottom 96-well microtiter plates (Maxisorp; Nunc, Roskilde, Denmark) were coated at 50 μl/well with 10 ng/well of anti-CALGRANULIN C in 0.1 M sodium carbonate buffer, pH 9.6; incubated for 16 h at 4° C.; washed three times with phosphate buffer saline and 0.1% Tween 20, pH 7.4 (wash buffer); and blocked with wash buffer containing 0.25% bovine serum albumin (block buffer) for 1 h at 37° C. Plates were washed once with wash buffer and 50 μl of samples with varying dilutions in block buffer were added for 1 h at room temperature. […] Absorbency at 405 nm was measured with ELISA-reader (MRX microplate reader, Dynatech Laboratories, St Peter Port, Guernsey, UK).
We investigated 42 patients with chronic inflammatory arthritis. CALGRANULIN C concentrations were analysed in serum and synovial fluid using a sandwich-ELISA as described above. Serum levels were determined from 14 patients (9 male, 5 female; mean age 40 years; range 21-64) suffering from psoriasis arthritis (mean disease duration 14.6±8.6 months), who where treated with the anti-inflammatory drug MTX (mean dose 12.9±4.8 mg). […]
We analysed the effects of MTX treatment on CALGRANULIN C expression in serum of 14 patients with psoriatic arthritis and in synovial membranes of 4 patients. […]

[4] = test system: JRA patients; conditions: Ravelli et al., 1995; cited from earlier work
[5] = test system: Human mixed donor neutrophils; experiment: CALGRANULIN C secretion by neutrophils stimulated with TNF alpha in vitro; type: cell-based
Procedure: Human mixed donor neutrophils were isolated from buffy coats (German red cross, Munster, Germany) as described before (Vogl et al., 1999, J Biol Chem 274: 25291-25296). Briefly, centrifugation through Ficoll-Hypague (Biocoll, Biochrom, Berlin, Germany) was performed to separate neutrophils from mononuclear cells and platelets. Erythrocytes were separated by dextran sedimentation. The remaining cells were washed twice in PBS. Purity of cells was above 95%, as determined by morphological analysis of Trypan-blue stained cells. Neutrophils were resuspended at a final concentration of 1×10^7 cells/ml in serum free RPMI medium (Biochrom, Berlin, Germany) supplemented with 1% glutamine, 1% non-essential amino acids, and 1% penicillin/streptomycin. […] Stimulated and non-stimulated cells were incubated for 15 or 30 minutes at 37° C., respectively. Finally, neutrophils were pelleted at 500×g for 5 minutes at 4° C. and the supernatant was saved for analyses of CALGRANULIN C with sandwich-ELISA. Cell lysis was assessed by analysing activity of lactate dehydrogenase (LDH) using its capacity to convert NADH to NAD^+ and measuring the decrease of absorbency of NADH at 340 nm. Protease inhibitors were added to prevent proteolytic degradation.

[6] = test system: CALGRANULIN C serum levels; experiment: CALGRANULIN C serum levels in Crohn's disease patients treated with infliximab; type: in vivo, human; conditions: 3 Crohn's disease patients; before, 2 weeks and 4 weeks after infliximab
Procedure: FIG. 11: CALGRANULIN C serum levels in patients with Crohn's disease due to infliximab treatment. Individual courses of CALGRANULIN C and CDAI in 3 patients before, 2 weeks, and 4 weeks after treatment with infliximab (a-c).
as §1, with “temperature. The ELISA was calibrated with purified CALGRANULIN C in concentrations ranging from 0.016 to 125 ng/ml.” for “temperature.”
Crohn's disease patients (n=40), ulcerative colitis patients (n=34) and healthy controls (n=30) were investigated: CALGRANULIN C protein serum levels were measured as described above using ELISA. In parallel, CRP and ESR were determined. […]

[7] = Stability of CALGRANULIN C protein; type: physicochemical; conditions: at room temperature or after multiple thawing and freezing cycles
[8] = test system: interaction of CALGRANULIN C with RAGE; conditions: blocking the CALGRANULIN C-RAGE interaction; Hofmann et al. 1999, Schmidt et al. 2001; cited from earlier work

## CN(Cc1cnc2nc(N)nc(N)c2n1)c1ccc(C(=O)N[C@@H](CCC(=O)O)C(=O)O)cc1 [MTX, methotrexat]
[1]; Patient 1, psoriatic arthritis, before MTX 23
  number of CALGRANULIN C-positive cells per field in synovial membrane, mean score of 10 fields: 3
[1]; Patient 2, psoriatic arthritis, before MTX 12
  number of CALGRANULIN C-positive cells per field in synovial membrane, mean score of 10 fields: <1
[1]; Patient 3, psoriatic arthritis, before MTX 17
  number of CALGRANULIN C-positive cells per field in synovial membrane, mean score of 10 fields: <1
[1]; Patient 4, psoriatic arthritis, before MTX 21
  number of CALGRANULIN C-positive cells per field in synovial membrane, mean score of 10 fields: <1
[1]; psoriatic arthritis patients after effective MTX treatment, extensive expression before
  CALGRANULIN C expression in synovial biopsies: almost undetectable
[2]; before MTX 4.2, p < 0.05
  CRP: 2.5* mg/dl
[2]; before MTX 5.3, p < 0.05
  Pain: 3.2* points
[2]; before MTX 6.3, p < 0.01
  RI (Ritchie articular index): 1.9** points
[2]; before MTX 9.6, p < 0.01
  SJC (swollen joint count): 3.3** No.
[2]; before MTX 28, p < 0.05
  ESR: 12* mm/h
[2]; before MTX 76, p < 0.01
  EMS (early morning stiffness): 25** min
[3]
  mean CALGRANULIN C serum level: 100 ng/mL
[4]
  JRA patients who relapse after withdrawal of treatment: about 50%

## TNF alpha
[5]; TNF alpha 2 or 5 ng/ml, 15 or 30 minutes at 37° C., unstimulated cells between 5 and 10 ng/ml
  CALGRANULIN C secretion into supernatant: time- and dose-dependent increase
[5]; stimulated vs non-stimulated neutrophils
  viability and cell lysis tested by LDH activity: no differences

## infliximab: TNF blocking agents such as anti-TNF antibodies, e.g. infliximab
[6]
  CALGRANULIN C serum levels after treatment: decreased rapidly

B1: CALGRANULIN C: small protein of 92 amino acids which belongs to the family of calcium-binding S100 proteins; SEQ ID NO:2 (protein)
chain: MTKLEEHLEGIVNIFHQYSVRKGHFDTLSKGELKQLLTKELANTIKNIKDKAVIDEIFQGLDANQDEQVDFQEFISLVAIALKAAHYHTHKE
modifications: homo sapiens
[7]
  stability of the protein: extremely stable

B2: sRAGE: soluble RAGE, receptor for advanced glycation end products, used as blocking agent in mouse models (protein, UniProt Q62151 23-340, looked up)
extracellular domain: GQNITARIGEPLVLSCKGAPKKPPQQLEWKLNTGRTEAWKVLSPQGGPWDSVARILPNGSLLLPATGIVDEGTFRCRATNRRGKEVKSNYRVRVYQIPGKPEIVDPASELTASVPNKVGTCVSEGSYPAGTLSWHLDGKLLIPDGKETLVKEETRRHPETGLFTLRSELTVIPTQGGTHPTFSCSFSLGLPRRRPLNTAPIQLRVREPGPPEGIQLLVEPEGGIVAPGGTVTLTCAISAQPPPQVHWIKDGAPLPLAPSPVLLLPEVGHEDEGTYSCVATHPSHGPQESPPVSIRVTETGDEGPAEGSVGESGLGTLA
modifications: extracellular domain
[8]
  effect in mouse models of inflammation including arthritis: clear anti-inflammatory effects
